Assay results taken from patent publication EP0055716B1, “AMPLIFIED ANTIBIOTIC AND ANTITUMOR AGENTS” (priority 1980, dated 1982).

Legend:
[1] = tested on: Walker 256 carcinoma Sarcoma; test: Survival of rats with Walker 256 ascites tumour, amide with or without amplifier; type: in vivo, Sprague Dawley rats; conditions: for T/C (1): control saline vehicle only
Experimental: This was given two 2-minute treatments with Boyle's fluid (9 vols. 0.83% NH4CI, 1 vol. Tris buffer, pH7.2). The cell suspension was counted on a haemocytometer using Turk's fluid and then diluted with Eagle's medium to 10^7 live cells per ml, and then 0.1 ml was injected intraperitoneally. Bacto-fluid Thiolglycollate Medium was used to test for contamination. Solutions of the phleomycins, bleomycins or tallysomycins were made up in phosphate-buffered saline at pH7.2 in daily doses at the commencement of each 5 day injection period and were kept frozen until the commencement of each day's injections. The injections were given at 9 a.m. and 4 p.m. […] Test groups usually comprised 7 or 8 animals.

Ehrlich's Ascites Tumor = test: Survival of mice with Ehrlich's ascites tumor, amide with or without amplifier; type: in vivo; conditions: for T/C (1): control saline vehicle only
Mouse Sarcoma 180 = test: Survival of mice with Sarcoma 180, amide with or without amplifier; type: in vivo; conditions: i.p.; for T/C (1): control saline vehicle only
[2] = Exp 1A, amplifier alone 10.61 uKD
[3] = Exp 1A, amplifier alone 106.1 uKD
[4] = Exp 1B, amplifier alone 10.61 uKD
[5] = Exp 1B, amplifier alone 1061 uKD
[6] = Exp 1D, amplifier alone 10.61 uKD in minipumps
[7] = Exp 1D, amplifier alone 106.1 uKD in minipumps
[8] = Exp 2A, i.p., amplifier alone 10.61 uKD
[9] = Exp 2A, i.p., amplifier alone 106.1 uKD
[10] = Exp 2B, amplifier alone 10.61 uKD in drinking water
[11] = Exp 2B, amplifier alone 106.1 uKD in drinking water
[12] = Exp 2B, amplifier alone 1061 uKD in drinking water
[13] = Exp 3A, amplifier alone 1942 uKD
[14] = Exp 1C, amplifier alone 675 uKD
[15] = Exp 1E, amplifier alone 675 uKD
[16] = Exp 2C, i.p., amplifier alone 675 uKD
[17] = Exp 2C, i.p., amplifier alone 2025 uKD
[18] = Exp 3B, amplifier alone 675 uKD
[19] = Exp 3C, amplifier alone 675 uKD

## Cn1c(=O)c2c(ncn2C)n(C)c1=O [Caffeine, 1, 3, 7 trimethyl xanthene]
[1]; [2]
  M.S.T.: 8.0 days
  T/C (1): 89
[1]; [3]
  M.S.T.: 8.0 days
  T/C (1): 89
[1]; [4]
  M.S.T.: 7.0 days
  T/C (1): 93
[1]; [5]
  M.S.T.: 8.0 days
  T/C (1): 107
[1]; [6]
  M.S.T.: 10.0 days
  T/C (1): 95
[1]; [7]
  M.S.T.: 10.0 days
  T/C (1): 95
Ehrlich's Ascites Tumor; [8]
  M.S.T.: 21.0 days
  T/C (1): 93
Ehrlich's Ascites Tumor; [9]
  M.S.T.: 21.0 days
  T/C (1): 93
Ehrlich's Ascites Tumor; [10]
  M.S.T.: 22.0 days
  T/C (1): 119
Ehrlich's Ascites Tumor; [11]
  M.S.T.: 21.0 days
  T/C (1): 113
Ehrlich's Ascites Tumor; [12]
  M.S.T.: 20.0 days
  T/C (1): 108
Mouse Sarcoma 180; [13]
  M.S.T.: 17.0 days
  T/C (1): 106

## Dimethylthiocyanine
[1]; [14]
  M.S.T.: 9.0 days
  T/C (1): 112
[1]; [15]
  M.S.T.: 6.0 days
  T/C (1): 100
Ehrlich's Ascites Tumor; [16]
  M.S.T.: 20.0 days
  T/C (1): 111
Ehrlich's Ascites Tumor; [17]
  M.S.T.: 20.0 days
  T/C (1): 111
Mouse Sarcoma 180; [18]
  M.S.T.: 17.0 days
  T/C (1): 100
Mouse Sarcoma 180; [19]
  M.S.T.: 17.0 days
  T/C (1): 100
